One test concerns the target T1, Avpr1aa (Danio rerio, UniProt A0A8M1P1H3).
T1 sequence (A0A8M1P1H3 1-379): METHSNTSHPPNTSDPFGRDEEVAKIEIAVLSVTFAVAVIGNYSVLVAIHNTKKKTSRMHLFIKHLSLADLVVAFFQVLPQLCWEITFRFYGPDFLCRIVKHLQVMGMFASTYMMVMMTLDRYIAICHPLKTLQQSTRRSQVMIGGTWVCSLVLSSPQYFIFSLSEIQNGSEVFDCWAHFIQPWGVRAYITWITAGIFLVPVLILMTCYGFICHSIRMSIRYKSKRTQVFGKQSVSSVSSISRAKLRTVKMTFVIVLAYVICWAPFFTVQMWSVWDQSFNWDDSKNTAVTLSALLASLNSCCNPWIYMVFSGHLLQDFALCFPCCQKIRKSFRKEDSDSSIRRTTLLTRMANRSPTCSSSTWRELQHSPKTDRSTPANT
As to the kind of experiment: Inositol phosphate accumulation assay, antagonism of 1 μM zVP at Avpr1aa. It is filed as cell-based, zebrafish. To be noted: stimulated with agonist; antagonist up to 1 μM. As for the experimental part:
The receptor constructs were ordered from GeneScript and subcloned into a pcDNA3.1/CT-GFP-TOPO vector. The coding sequences of the GenBank entries NM_001199370.1 (oxtr), NM_001199369.1 (oxtrl), NM_001301114.1 (avpr1aa), and NM_001297676.1 (avpr1ab) were used for synthesis. The stop codons were removed, and an additional […] was added to facilitate hybrid protein expression with GFP in frame from the vector. The GCCACC Kozak sequence was inserted before the start codons. After transformation of the plasmid constructs into TOP10 competent cells (Thermo Fisher Scientific), the Maxiprep (Thermo Fisher Scientific) method was used to amplify the plasmids for transfection.
The Inositol phosphate accumulation assay was performed according to previous descriptions to measure the potency of different ligands for zebrafish different oxytocin related receptors. Each receptor construct was transfected into HEK293 cells using Lipofectamine 2000 (Thermo Fisher Scientific). Myo2-^3H-inositol (PerkinElmer) at 3 μCi/mL was added the day after transfection. […] Samples were mixed with OptiPhase HiSafe (PerkinElmer Waltham, MA, USA) and ^3H radioactivity was measured with a Tri-Carb 2910TR liquid scintillation counter (PerkinElmer Waltham, MA, USA). […]

For a further test, the system named is zebrafish. Also on record: method as in 4 sources, ref 42 = [42]; PMID 21956239; doi:10.1007/s00213-011-2482-2; 42. Braida D Neurohypophyseal hormones manipulation modulate social and anxiety-related behavior in zebrafish Psychopharmacology (Berl) 2012 220 319 330 10.1007/s00213-011-2482-2 21956239 ||| ref 44 = [44]; PMID 27247142; doi:10.1016/j.bbr.2016.05.059; 44. Zimmermann FF Gaspary KV Siebel AM Bonan CD Oxytocin reversed MK-801-induced social interaction and aggression deficits in zebrafish Behav Brain Res 2016 311 368 374 10.1016/j.bbr.2016.05.059 2724 ||| ref 51 = [51]; doi:10.1163/1568539x-00003261; 51. Lindeyer CM Langen EMA Swaney WT Reader SM Nonapeptide influences on social behaviour: effects of vasotocin and isotocin on shoaling and interaction in zebrafish Behaviour 2015 152 897 915 10.1163 ||| ref 27 = [27]; PMID 26347614; doi:10.3389/fncir.2015.00039; 27. Dreosti E Lopes G Kampff AR Wilson SW Development of social behavior in young zebrafish Front Neural Circuits 2015 9 39 10.3389/fncir.2015.00039 26347614 PMC4539524. To be noted: cited from earlier work. An excerpt: Thus far, dopamine[56] and serotonin[57] in the mesolimbic system and excitation-inhibition balance[58] seem to play a prominent role in social investigation in rodents. Similarly, levels of dopamine and serotonin are modulated in socially interacting fish[59]–[61] and social preference behaviour decreases after treatment with a dopamine D1 receptor antagonist. […] In rodents, release of ... || (+ 1 further places)

Molecules are shown by their SMILES. “Also recorded” adds a separate entry of the source.

Regarding `Cc1ccccc1N1CCN(S(=O)(=O)C[C@]23CC[C@H](C[C@@H]2NC(=O)[C@@H](N)CCS(C)(=O)=O)C3(C)C)CC1` [L-368,899], the “Antagonism at Avpr1aa, in words” value on Avpr1aa is “did not block the response; also recorded: without reducing the effect of the peptide agonist”. Moreover, the “Social preference, compound by itself” value in the test with zebrafish (adult zebrafish) was “did not decrease social preference”. Moreover, the “Social deficits following MK-801 exposure” value in the test on zebrafish (zebrafish exposed to glutamate antagonist MK-801) is on record as “did not reverse those deficits”.
